Source: patent US4248870A, “Maytansinoids and use” (Takeda Chemical Industries, Ltd., priority 1979, dated 1981)
In brackets after ≈: the same amount, converted by molar mass.

How the values were obtained:
leukemia P-388 = assay: Therapeutic test in mice, leukemia P-388 transplanted intraperitoneally (life span prolongation); type: in vivo; details: intraperitoneally once daily for 9 consecutive days
Method: (§1) Therapeutic tests were carried out in mice according to NCI-protocols 1,200 and 1,300, Cancer Chemother, Reports, Part 3, 1972, Vol. 3, No. 2, in which leukemia P-388 and melanoma B-16 tumor cells had been intraperitoneally transplanted, compound (I) being administered intraperitoneally once daily for 9 consecutive days.

melanoma B-16 = assay: Therapeutic test in mice, melanoma B-16 transplanted intraperitoneally (life span prolongation); type: in vivo; details: intraperitoneally once daily for 9 consecutive days
Method: as §1

Tetrahymena pyriformis W = assay: Antiprotozoal activity, growth inhibition by serial dilution method; type: cell-based; details: 28° C., 44 to 48 hours, pH 7.0, serial dilution method
Method: Antiprotozoal activity of compound (I) was assayed with Tetrahymena pyriformis W as the test organism and a medium composed of 20 g tryptose-peptone (Difco Co.), 1 g yeast extract, 2 glucose, 1000 ml distilled water, 10 ml 1 M phosphate buffer (pH 7.0) as the assay medium. The microorganism was incubated at 28° C. for 44 to 48 hours and the growth inhibitory activity of compound (I) was assayed by the serial dilution method.

COc1cc2cc(c1Cl)N(C)C(=O)CC(OC(=O)Cc1ccccc1)C1(C)OC1C(C)C1CC(O)(NC(=O)O1)C(OC)C=CC=C(C)C2 (centres unmarked) [Maytansinol 3-phenylacetate]
Antitumor activities P-388 (T/C %) (leukemia P-388; 12.5 μg/kg): 164% | Antitumor activities P-388 (T/C %) (leukemia P-388; 25 μg/kg): 185% | Antitumor activities B-16 (T/C %) (melanoma B-16; 12.5 μg/kg): 207% | Antitumor activities B-16 (T/C %) (melanoma B-16; 25 μg/kg): 230% | MIC (Tetrahymena pyriformis W): < 2 µg/mL

COc1cc2cc(c1Cl)N(C)C(=O)CC(OC(=O)c1ccccc1)C1(C)OC1C(C)C1CC(O)(NC(=O)O1)C(OC)C=CC=C(C)C2 (centres unmarked) [Maytansinol 3-benzoate]
MIC (Tetrahymena pyriformis W): 4 µg/mL (≈ 5.98 µM)

COc1cc2cc(c1Cl)N(C)C(=O)CC(OC(=O)C1CCCCC1)C1(C)OC1C(C)C1CC(O)(NC(=O)O1)C(OC)C=CC=C(C)C2 (centres unmarked) [Maytansinol 3-cyclohexane carboxylate, Maytansinol 3-cyclohexanecarboxylate]
Antitumor activities B-16 (T/C %) (melanoma B-16; 25 μg/kg): 193% | Antitumor activities B-16 (T/C %) (melanoma B-16; 50 μg/kg): 188% | Antitumor activities B-16 (T/C %) (melanoma B-16; 100 μg/kg): 193% | MIC (Tetrahymena pyriformis W): < 2 µg/mL

COc1cc2cc(c1Cl)N(C)C(=O)CC(OC(=O)c1cccs1)C1(C)OC1C(C)C1CC(O)(NC(=O)O1)C(OC)C=CC=C(C)C2 (centres unmarked) [Maytansinol 3-(2-thiophene)carboxylate]
MIC (Tetrahymena pyriformis W): ≥ 4 µg/mL

COc1cc2cc(c1Cl)N(C)C(=O)CC(OC(=O)C1CC1)C1(C)OC1C(C)C1CC(O)(NC(=O)O1)C(OC)C=CC=C(C)C2 (centres unmarked) [Maytansinol 3-cyclopropane carboxylate, Maytansinol 3-cyclopropanecarboxylate]
MIC (Tetrahymena pyriformis W): 4 µg/mL (≈ 6.32 µM)

COc1cc2cc(c1Cl)N(C)C(=O)CC(OC(=O)c1ccc(Cl)cc1)C1(C)OC1C(C)C1CC(O)(NC(=O)O1)C(OC)C=CC=C(C)C2 (centres unmarked) [Maytansinol 3-(p-chloro)benzoate, Maytansinol 3-p-chlorobenzoate]
MIC (Tetrahymena pyriformis W): ≥ 4 µg/mL

COc1cc2cc(c1Cl)N(C)C(=O)CC(OC(=O)c1ccco1)C1(C)OC1C(C)C1CC(O)(NC(=O)O1)C(OC)C=CC=C(C)C2 (centres unmarked) [Maytansinol 3-(2-furane)carboxylate, Maytansinol 3-(2-furan)carboxylate]
MIC (Tetrahymena pyriformis W): ≥ 4 µg/mL

COc1cc2cc(c1Cl)N(C)C(=O)CC(OC(=O)CCc1ccccc1)C1(C)OC1C(C)C1CC(O)(NC(=O)O1)C(OC)C=CC=C(C)C2 (centres unmarked) [Maytansinol 3-(3-phenyl)propionate, Maytansinol 3-phenylpropionate]
MIC (Tetrahymena pyriformis W): 2 to 4 µg/mL (≈ 2.87 to 5.74 µM)

COc1cc2cc(c1Cl)N(C)C(=O)CC(OC(=O)c1ccccn1)C1(C)OC1C(C)C1CC(O)(NC(=O)O1)C(OC)C=CC=C(C)C2 (stereo not drawn) [Maytansinol 3-α-picolinate, Maytansinol 3-picolinate]
Antitumor activities P-388 (T/C %) (leukemia P-388; 50 μg/kg): 193% | Antitumor activities P-388 (T/C %) (leukemia P-388; 100 μg/kg): 185% | Antitumor activities B-16 (T/C %) (melanoma B-16; 100 μg/kg): 176% | Antitumor activities B-16 (T/C %) (melanoma B-16; 200 μg/kg): 173% | MIC (Tetrahymena pyriformis W): ≥ 4 µg/mL
